Test results published in patent US9433663B2, “Mobilization of hematopoietic stem cells” (Children's Hospital Medical Center, priority 2008, dated 2016).

B1: G-CSF: growth factor, currently available HSPC mobilization agent (protein, UniProt P09919 31-207, looked up)
Granulocyte …: TPLGPASSLPQSFLLKCLEQVRKIQGDGAALQEKLVSECATYKLCHPEELVLLGHSLGIPWAPLSSCPSQALQLAGCLSQLHSGLFLYQGLLQALEGISPELGPTLDTLQLDVADFATTIWQQMEELGMAPALQPTQGAMPAFASAFQRRAGGVLVASHLQSFLEVSYRVLRHLAQP

How the values were obtained:
C57Bl/6 mice = experiment: mobilization of colony-forming progenitors to peripheral blood, CFU-C assay; type: in vivo; conditions: C57Bl/6 mice, FIG. 8b
Method: Whether CASIN administration can induce mobilization of HSC/Ps to peripheral blood of C57Bl/6 mice, mimicking the phenotype observed in Cdc42 conditional knockout mice, was evaluated. First of all, mobilization of hematopoietic progenitor cells was examined by CFU-C assays functionally (FIG. 3a). […] Secondarily, to further explore the ability of CASIN to mobilize LT-HSC which is crucial for long-term repopulation of the mobilized cells, serial transplantations were carried out, where 20 million PB from CASIN-mobilized C57Bl/6 mice was transplanted into primary recipient of NOD/SCID mice, and subsequent secondary and tertiary transplants were finished as well using prior BMs (FIG. 3c). Donor chimerisms were assessed by using H2K^b congenic marker which is positive for donors of C57Bl/6 strain and negative for recipients of NOD/SCID strain. […] Therefore, the studies show CASIN can efficiently mobilize colony-forming hematopoietic progenitors and LT-HSCs with self-renewal and multi-lineage differentiation capacity. Thirdly, to further investigate the potential of CASIN to vacate the BM niche after mobilization, six-color staining of the BM cells was performed from C57Bl/6 mice with or without CASIN treatment followed by FACS analysis. […] Therefore, a transient decrease in BM and a concomitant increase in peripheral organs of HSCs would be beneficial to facilitating the subsequent HSC transplantation.
To determinate the hematopoietic progenitor content in the PB of mobilized C57Bl/6 mice, colony-forming unit assay was performed as described previously. Briefly, 200 ul PB was plated in triplicate into methylcellulose (MethocultM3434; StemCell Technology, Vancouver, BC, Canada). Colonies were then counted 7 d later.

donor cell engraftment = experiment: Example 9 mobilization as preparative regimen for HSC transplantation; type: in vivo, mice; conditions: compared to the non-mobilization control
Method: If the microenvironmental niches are vacated after CASIN exposure, donor HSCs might engraft better in hosts treated with a mobilizing agent such as CASIN compared with non-mobilized controls. To test this, bone marrow transplantation is performed on recipient mice which are pre-conditioned with CASIN. […] Additionally, AMD3100, G-CSF, and control medium are used in parallel with CASIN as controls.
Briefly, mice are treated with CASIN, and 4×10^7 donor bone marrow cells from congenic mouse strain are transplanted 48 h later. Donor cell engraftment is assayed at 3 months using the congenic markers by flow cytometry.
Additionally, multiple cycles of mobilization with CASIN may increase the number of available niches. Therefore, this study investigates whether repeated cycles of CASIN mobilization, each followed by donor cell transplantation, could result in increased engraftment. Briefly, mice receive one weekly injection of CASIN on 3 consecutive weeks and 4×10^7 donor marrow cells are transplanted 48 hours after each mobilization. Control animals also received 3 weekly infusions of 4×10^7 donor marrow cells but no CASIN. And the donor engraftment is assayed at 3 months after transplantation as well.

Fancc−/− mice [1] = experiment: Example 10 preparative regimen for BM transplantation in Fancc−/− mice; type: in vivo; conditions: preconditioning before BM transplantation
Method: Four preparative regimens before BM transplantation on Fancc−/− mice are used to evaluate the capacity of CASIN as a preconditioning agent: (1) Control group; (2) CY group: a single dose of 40 mg/kg CY intraperitoneally; (3) CASIN group: 2.5 mg/Kg; (4) combination of CASIN and CY: one injection of CASIN is given in combination with reduced doses of CY.
Fancc−/− mice are preconditioned with each of these four regimens, and 4×10^7 BM cells from congenic strain mice are transplanted into preconditioned mice by tail vein injection. Mice that underwent transplantation are bled every four weeks to monitor the chimerism of donor-derived cells in PB. And at 3 m, the mice are sacrificed to evaluate the engraftment of donor-derived cells in BM.

Fancc−/− mice [2] = experiment: Example 10 HSC/P mobilization in Fancc−/− mice; conditions: mouse, in vivo
Method: The effects of CASIN on HSC/P mobilization in Fancc−/− mice are investigated under four groups in parallel with WT mice: (1) Control group; (2) G-CSF group: 2.5 μg G-CSF per mouse, twice a day for 4 d120; (3) CASIN group: 2.5 mg/Kg; (4) combination of CASIN and G-CSF: one injection of CASIN is given 40 h before the end of 4 d G-CSF administration.
Fancc−/− or WT mice are mobilized with regimens corresponding to the four experimental groups. Then PB are harvested by cardiac puncture. Phenotypically, the absolute number and percentage of HSC/Ps in PB after mobilization are determined as those of LSK (Lin− Sca+ c-Kit+) cells by flow cytometry. Functionally, CFU-C assay is performed in triplicate for each mouse by using PB of mice from different experimental groups, and CFU-GM, CFU-GEMM, BFU-E, and CFU-E are distinguished by morphology and using cytokine combinations. Furthermore, the long-term repopulation capacity of the mobilized HSCs is evaluated using a competitive repopulating assay and subsequent secondary transplantation as discussed above.

Row | Molecule | mobilization of colony-forming progenitors (C57Bl/6 mice) | engraftment of donor cells in pre-conditioned recipients (donor cell engraftment) | repopulation and engraftment of donor derived cells in PB and BM of Fancc−/− recipient mice (Fancc−/− mice [1]) | mobilization of HSC/Ps (LSK cells, progenitor colonies) in Fancc−/− mice (Fancc−/− mice [2])
1 | c1cc(CN2CCCNCCNCCCNCC2)ccc1CN1CCCNCCNCCCNCC1 [AMD3100, reference compound] | can mobilize colony-forming progenitors | significantly increased engraftment of donor cells |  | 
2 | O=P1(N(CCCl)CCCl)NCCCO1 (stereo not drawn) [CY, reference compound] |  |  | comparable engraftment and repopulation | 
3 | B1 | can mobilize colony-forming progenitors | significantly increased engraftment of donor cells |  | less effective mobilizer of HSC/Ps in Fancc−/− mice than in WT mice
